According to US20240425513A1, “OXAZOLE, OXADIAZOLE, AND INDOLE DERIVATIVES FOR THE INHIBITION OF USP28” (Carmot Therapeutics, Inc., priority 2021, published 2024):

Target: His6 USP28 (Homo sapiens (Human), UniProt Q96RU2)
Assay: Ubiquitin-Rhodamine 110 assay to determine USP28 IC50
Format: biochemical
Conditions: USP28 150 pM, Ub-Rho110 41 nM, 2 h pre-incubation with enzyme, fluorescence read
Description: Example 21. Ubiquitin-Rhodamine 110 Assay to Determine USP28 IC50
Each assay was performed in a final volume of 8 μl in assay buffer containing 10 mM HEPES pH 7.3 ((1 M, pH 7.3 solution, (VWR J848), 100 mM NaCl (5 M, Corning 46-032-CV), 0.01% Triton X-100 (Sigma #T8787), 3.5 mM DTT (1 M, Sigma #43819) and 0.00375% BSA (10%, Calbiochem, #126609)). The assay buffer pH was adjusted to 7.5 using 1 N NaOH (JT Baker, #5000-03). Stock compounds were stored at −80° C. as a 25 mM in DMSO solution along with their respective 20 point 2 fold serial dilutions. For the dose responses, stock compound plates were allowed to come to room temperature the day of the assay. […] of the serial dilution series were pre stamped into assay plates (Black, high base, medium binding, Greiner #782076) for a final top screening concentration of 125 μM (DMSO final concentration=0.5%). Enzyme (His6 USP28, BostonBiochem, #E-570) concentration and incubation times were optimized for the maximal signal to background while maintaining the initial velocity conditions at a fixed substrate concentration. The final concentration of the enzyme in the assay was 150 pM. Final substrate (Ub-Rhol10, Ubiquitin-Rhodamine 110, UBPBio, #M3020) concentration was 41 nM. 2 μl of 4× enzyme was added to assay plates (pre stamped with compound) and incubated for 2 h at room temperature. […] was subsequently added to the assay plates and incubated for 2 h at room temperature. Fluorescence was then read on the Envision (Excitation 485 nm and Emission at 535 nm, Perkin Elmer).

His6 USP28, sequence (Q96RU2 whole entry): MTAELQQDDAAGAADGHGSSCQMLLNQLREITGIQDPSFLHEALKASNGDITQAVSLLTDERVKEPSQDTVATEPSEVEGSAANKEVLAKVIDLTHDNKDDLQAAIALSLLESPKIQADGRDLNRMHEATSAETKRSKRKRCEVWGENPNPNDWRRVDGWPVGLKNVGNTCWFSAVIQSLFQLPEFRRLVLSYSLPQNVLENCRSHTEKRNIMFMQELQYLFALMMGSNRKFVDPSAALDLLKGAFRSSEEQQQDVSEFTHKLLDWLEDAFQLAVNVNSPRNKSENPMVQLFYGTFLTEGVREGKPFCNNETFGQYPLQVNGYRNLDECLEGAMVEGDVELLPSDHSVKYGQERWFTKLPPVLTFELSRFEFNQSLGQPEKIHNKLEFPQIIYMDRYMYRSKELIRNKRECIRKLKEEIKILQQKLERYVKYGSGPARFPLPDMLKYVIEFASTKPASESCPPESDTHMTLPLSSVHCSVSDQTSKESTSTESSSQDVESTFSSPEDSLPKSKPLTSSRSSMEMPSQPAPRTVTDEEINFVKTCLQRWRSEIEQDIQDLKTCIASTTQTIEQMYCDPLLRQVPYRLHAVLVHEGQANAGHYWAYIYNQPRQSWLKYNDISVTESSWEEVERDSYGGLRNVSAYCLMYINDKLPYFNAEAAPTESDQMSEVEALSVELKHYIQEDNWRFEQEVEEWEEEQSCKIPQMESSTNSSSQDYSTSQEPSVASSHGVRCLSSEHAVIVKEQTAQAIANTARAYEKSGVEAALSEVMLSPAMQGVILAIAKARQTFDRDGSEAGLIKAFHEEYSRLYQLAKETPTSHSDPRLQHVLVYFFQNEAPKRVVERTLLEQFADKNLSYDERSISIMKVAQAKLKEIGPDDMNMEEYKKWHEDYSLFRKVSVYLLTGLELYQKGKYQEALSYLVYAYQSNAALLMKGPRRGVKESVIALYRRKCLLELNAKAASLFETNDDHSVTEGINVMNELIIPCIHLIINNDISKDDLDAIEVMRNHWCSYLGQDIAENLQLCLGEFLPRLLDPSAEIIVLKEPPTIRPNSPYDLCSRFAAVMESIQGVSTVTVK

| SMILES | IC50 |
| --- | --- |
| CC(=O)N1CCN(C(=O)c2cc3cc(OCc4ccccc4)ccc3[nH]2)C[C@@H]1C(=O)N[C@H]1C[C@@H](C)N(C#N)C1 [Compound 42] | 0.05 to 0.5 µM |
| Cc1oc(Cc2cccc(Cl)c2)nc1-c1ccc(OCc2ccc(C(=O)N(C)C)cn2)cc1 [Compound 24, 6-[(4-{2-[(3-Chlorophenyl)methyl]-5-methyl-1,3-oxazol-4-yl}phenoxy)methyl]-N,N-dimethylpyridine-3-carboxamide] | < 0.05 µM |
| Cc1oc(Cc2cccc(Cl)c2)nc1-c1ccc(OCc2ccc(C(=O)N(C)C)cc2)cc1 [Compound 22, 4-((4-(2-(3-Chlorobenzyl)-5-methyloxazol-4-yl)phenoxy)methyl)-N,N-dimethylbenzamide] | < 0.05 µM |
| Cc1oc(Cc2cccc(Cl)c2)nc1-c1ccc(COc2ccc(C(=O)N(C)CCN3CCCNC3=O)cc2)cc1 [Compound 44, 4-[(4-{2-[(3-Chlorophenyl)methyl]-5-methyl-1,3-oxazol-4-yl}phenyl)methoxy]-N-methyl-N-[2-(2-oxo-1,3-diazinan-1-yl)ethyl]benzamide] | < 0.05 µM |
| Cc1oc(Cc2cccc(Cl)c2)nc1-c1ccc(OCc2ncc(C(=O)N(C)C)cn2)cc1 [Compound 26, 2-[(4-{2-[(3-Chlorophenyl)methyl]-5-methyl-1,3-oxazol-4-yl}phenoxy)methyl]-N,N-dimethylpyrimidine-5-carboxamide] | < 0.05 µM |
| Cc1oc(Cc2cccc(Cl)c2)nc1-c1ccc(OCc2ccc(C(=O)N3CCC(N)CC3)cn2)cc1 [Compound 38, 1-{6-[(4-{2-[(3-Chlorophenyl)methyl]-5-methyl-1,3-oxazol-4-yl}phenoxy)methyl]pyridine-3-carbonyl}piperidin-4-amine] | < 0.05 µM |
| Cc1oc(Cc2cccc(Cl)c2)nc1-c1ccc(COc2ccc(C(=O)N3CCC(Cc4ncc[nH]4)CC3)cc2)cc1 [Compound 43, (4-((1H-Imidazol-2-yl)methyl)piperidin-1-yl)(4-((4-(2-(3-chlorobenzyl)-5-methyloxazol-4-yl)benzyl)oxy)phenyl)methanone] | < 0.05 µM |
| Cc1oc(Cc2cccc(Cl)c2)nc1-c1ccc(OCc2cc(C(=O)N(C)C)n(C)n2)cc1 [Compound 23, 3-((4-(2-(3-Chlorobenzyl)-5-methyloxazol-4-yl)phenoxy)methyl)-N,N,1-trimethyl-1H-pyrazole-5-carboxamide] | 0.05 to 0.5 µM |
| Cc1oc(Cc2ccnc(Cl)c2)nc1-c1ccc(OCc2ccc(C(=O)N(C)C)cn2)cc1 [Compound 31, 6-[(4-{2-[(2-Chloropyridin-4-yl)methyl]-5-methyl-1,3-oxazol-4-yl}phenoxy)methyl]-N,N-dimethylpyridine-3-carboxamide] | 0.05 to 0.5 µM |
| Cc1oc(Cc2cnn(C)c2)nc1-c1ccc(OCc2ccc(C(=O)N(C)C)cn2)cc1 [Compound 30] | 0.05 to 0.5 µM |
| Cc1oc(Cc2cccc(Cl)c2)nc1-c1ccc(OCc2ccc(C(=O)N3CCC[C@@H](C(=O)O)C3)cn2)cc1 [Compound 32, (3R)-1-{6-[(4-{2-[(3-Chlorophenyl)methyl]-5-methyl-1,3-oxazol-4-yl}phenoxy)methyl]pyridine-3-carbonyl}piperidine-3-carboxylic acid] | < 0.05 µM |
| Cc1oc(Cc2cccc(Cl)c2)nc1-c1ccc(COc2ccc(C(=O)N(C)C)cc2)cc1 [Compound 21, 4-((4-(2-(3-Chlorobenzyl)-5-methyloxazol-4-yl)benzyl)oxy)-N,N-dimethylbenzamide] | < 0.05 µM |

Second part, the compound after the results:

| IC50 | SMILES |
| --- | --- |
| < 0.05 µM | CN[C@@H]1CCN(C(=O)c2ccc(COc3ccc(-c4nc(Cc5cccc(Cl)c5)oc4C)cc3)nc2)C1 [Compound 36, (3R)-1-{6-[(4-{2-[(3-Chlorophenyl)methyl]-5-methyl-1,3-oxazol-4-yl}phenoxy)methyl]pyridine-3-carbonyl}-N-methylpyrrolidin-3-amine] |
| < 0.05 µM | CN[C@@H]1CCCN(C(=O)c2ccc(COc3ccc(-c4nc(Cc5cccc(Cl)c5)oc4C)cc3)nc2)C1 [Compound 41, (3R)-1-{6-[(4-{2-[(3-Chlorophenyl)methyl]-5-methyl-1,3-oxazol-4-yl}phenoxy)methyl]pyridine-3-carbonyl}-N-methylpiperidin-3-amine] |
| > 1 µM | C[C@@H]1C[C@@H](NC(=O)Cc2ccc(-c3nc(Cc4cccc(Cl)c4)no3)cc2)CN1C#N [Compound 16, 2-(4-{3-[(3-Chlorophenyl)methyl]-1,2,4-oxadiazol-5-yl}phenyl)-N-[(3R,5R)-1-cyano-5-methylpyrrolidin-3-yl]acetamide] |
| 0.05 to 0.5 µM | Cc1oc(Cc2cccc(Cl)c2)nc1-c1ccc(/C=C/C(=O)N[C@@H]2C[C@@H](C)N(C#N)C2)cc1 [Compound 14, (E)-3-(4-(2-(3-Chlorobenzyl)-5-methyloxazol-4-yl)phenyl)-N-((3R,5R)-1-cyano-5-methylpyrrolidin-3-yl)acrylamide] |
| 0.05 to 0.5 µM | C[C@@H]1C[C@@H](NC(=O)/C=C/c2ccc(-c3nc(Cc4cccc(Cl)c4)no3)cc2)CN1C#N [Compound 5, (E)-3-(4-(3-(3-Chlorobenzyl)-1,2,4-oxadiazol-5-yl)phenyl)-N-((3R,5R)-1-cyano-5-methylpyrrolidin-3-yl)acrylamide] |
| 0.05 to 0.5 µM | C[C@@H]1C[C@@H](NC(=O)NCc2ccc(-c3nc(Cc4cccc(Cl)c4)no3)cc2)CN1C#N [Compound 10, 1-(4-(3-(3-Chlorobenzyl)-1,2,4-oxadiazol-5-yl)benzyl)-3-((3R,5R)-1-cyano-5-methylpyrrolidin-3-yl)urea] |
| > 1 µM | COc1cccc(Cc2noc(-c3ccc(OCC(=O)N[C@@H]4C[C@@H](C)N(C#N)C4)cc3)n2)c1 [Compound 7, N-[(3R,5R)-1-Cyano-5-methylpyrrolidin-3-yl]-2-(4-{3-[(3-methoxyphenyl)methyl]-1,2,4-oxadiazol-5-yl}phenoxy)acetamide] |
| 0.05 to 0.5 µM | Cc1cccc(Cc2noc(-c3ccc(OCC(=O)N[C@@H]4C[C@@H](C)N(C#N)C4)cc3)n2)c1 [Compound 9, N-[(3R,5R)-1-Cyano-5-methylpyrrolidin-3-yl]-2-(4-{3-[(3-methylphenyl)methyl]-1,2,4-oxadiazol-5-yl}phenoxy)acetamide] |
| > 1 µM | C[C@@H]1C[C@@H](NC(=O)COc2ccc(-c3nc(Cc4ccccc4)no3)cc2)CN1C#N [Compound 2, 2-[4-(3-Benzyl-1,2,4-oxadiazol-5-yl)phenoxy]-N-[(3R,5R)-1-cyano-5-methylpyrrolidin-3-yl]acetamide] |
| 0.05 to 0.5 µM | C[C@@H]1C[C@@H](NC(=O)COc2ccc(-c3nc(Cc4cccc(Cl)c4)no3)cc2)CN1C#N [Compound 3, 2-(4-(3-(3-Chlorobenzyl)-1,2,4-oxadiazol-5-yl)phenoxy)-N-((3R,5R)-1-cyano-5-methylpyrrolidin-3-yl)acetamide] |
| 0.05 to 0.5 µM | C[C@@H]1C[C@@H](NC(=O)COc2ccc(-c3nc(Cc4ccc(Cl)cc4)no3)cc2)CN1C#N [Compound 4, 2-(4-{3-[(4-Chlorophenyl)methyl]-1,2,4-oxadiazol-5-yl}phenoxy)-N-[(3R,5R)-1-cyano-5-methylpyrrolidin-3-yl]acetamide] |
| > 1 µM | C[C@@H]1C[C@@H](NC(=O)/C=C/c2cccc(-c3nc(Cc4cccc(Cl)c4)no3)c2)CN1C#N [Compound 17, (2E)-3-(3-{3-[(3-Chlorophenyl)methyl]-1,2,4-oxadiazol-5-yl}phenyl)-N-[(3R,5R)-1-cyano-5-methylpyrrolidin-3-yl]prop-2-enamide] |
